Measured values published in ChEMBL document CHEMBL1155844, “Pyrazole inhibitors of coactivator associated arginine methyltransferase 1 (CARM1)” (Bioorg Med Chem Lett, 2008).

Key:
[1] = target: T1, Histone-arginine methyltransferase CARM1 (Homo sapiens, UniProt Q86X55); assay: Inhibition of human GST-tagged CARM1 by methylation assay
T1 sequence (Q86X55 whole entry): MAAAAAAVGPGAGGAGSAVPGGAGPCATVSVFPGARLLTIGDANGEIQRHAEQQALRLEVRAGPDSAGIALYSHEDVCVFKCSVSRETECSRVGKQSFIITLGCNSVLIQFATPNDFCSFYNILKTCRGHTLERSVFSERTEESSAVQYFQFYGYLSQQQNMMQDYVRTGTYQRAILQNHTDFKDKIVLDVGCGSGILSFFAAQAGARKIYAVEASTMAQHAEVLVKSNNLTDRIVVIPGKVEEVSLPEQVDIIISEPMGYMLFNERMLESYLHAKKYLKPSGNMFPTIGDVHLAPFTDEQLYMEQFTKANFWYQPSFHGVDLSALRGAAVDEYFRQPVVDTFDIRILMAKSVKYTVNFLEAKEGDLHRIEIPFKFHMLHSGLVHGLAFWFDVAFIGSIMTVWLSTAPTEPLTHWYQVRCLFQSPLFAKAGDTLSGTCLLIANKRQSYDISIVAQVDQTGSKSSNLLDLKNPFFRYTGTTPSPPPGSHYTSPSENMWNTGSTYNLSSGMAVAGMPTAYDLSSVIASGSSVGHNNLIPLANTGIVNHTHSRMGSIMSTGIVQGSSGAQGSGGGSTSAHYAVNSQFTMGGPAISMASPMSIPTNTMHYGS

[2] = target: Protein arginine N-methyltransferase 1 (Homo sapiens, UniProt Q99873); assay: Inhibition of GST-tagged PRMT1 by methylation assay
Chain of Protein arginine N-methyltransferase 1 (Q99873 whole entry): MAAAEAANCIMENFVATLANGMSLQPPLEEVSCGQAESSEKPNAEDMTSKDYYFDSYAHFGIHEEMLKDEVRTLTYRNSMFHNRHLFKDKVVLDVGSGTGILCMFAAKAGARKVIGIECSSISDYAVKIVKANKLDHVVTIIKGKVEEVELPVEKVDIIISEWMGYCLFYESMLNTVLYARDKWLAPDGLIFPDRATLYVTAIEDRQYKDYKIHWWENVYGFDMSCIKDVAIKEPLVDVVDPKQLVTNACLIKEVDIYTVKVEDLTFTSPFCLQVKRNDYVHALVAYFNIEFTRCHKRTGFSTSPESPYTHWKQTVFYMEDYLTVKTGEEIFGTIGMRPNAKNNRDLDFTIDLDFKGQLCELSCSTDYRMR

[3] = target: Protein arginine N-methyltransferase 3 (Homo sapiens, UniProt O60678); assay: Inhibition of GST-tagged PRMT3 by methylation assay
Chain of Protein arginine N-methyltransferase 3 (O60678 whole entry): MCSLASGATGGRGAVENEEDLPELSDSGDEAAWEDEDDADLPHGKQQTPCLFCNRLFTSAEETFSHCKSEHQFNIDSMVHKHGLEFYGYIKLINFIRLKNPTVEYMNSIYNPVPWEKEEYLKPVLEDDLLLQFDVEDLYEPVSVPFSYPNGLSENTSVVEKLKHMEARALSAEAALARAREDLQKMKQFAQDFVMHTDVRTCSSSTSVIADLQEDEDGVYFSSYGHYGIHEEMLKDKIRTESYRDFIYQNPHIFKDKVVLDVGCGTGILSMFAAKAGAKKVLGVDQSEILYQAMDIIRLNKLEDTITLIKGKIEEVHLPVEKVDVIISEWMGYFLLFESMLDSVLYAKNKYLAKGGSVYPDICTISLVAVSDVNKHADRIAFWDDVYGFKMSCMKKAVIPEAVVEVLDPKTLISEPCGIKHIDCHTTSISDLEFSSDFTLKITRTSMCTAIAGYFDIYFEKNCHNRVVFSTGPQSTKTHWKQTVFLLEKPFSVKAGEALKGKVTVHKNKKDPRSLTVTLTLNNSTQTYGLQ

SMILES	IC50 [1] [µM]	IC50 [2] [µM]	IC50 [3] [µM]
CNCC(=O)NCc1cccc(-n2nc(C(F)(F)F)cc2C(=O)Nc2ccc(-c3ccccc3S(C)(=O)=O)cc2F)c1	> 30		
CC(C)(N)C(=O)NCc1cccc(-n2nc(C(F)(F)F)cc2C(=O)Nc2ccc(-c3ccccc3S(C)(=O)=O)cc2F)c1	> 30		
C[C@H](N)C(=O)NCc1cccc(-n2nc(C(F)(F)F)cc2C(=O)NCc2ccccc2)c1	0.08	> 25	> 25
C[C@H](N)C(=O)NCc1cccc(-n2nc(C(F)(F)F)cc2C(=O)Nc2ccccc2)c1	1.32		
C[C@H](N)C(=O)NCc1cccc(-n2nc(C(F)(F)F)cc2C(=O)N(C)Cc2ccccc2)c1	3.4		
C[C@H](N)C(=O)NCc1cccc(-n2nc(C(F)(F)F)cc2C(=O)N[C@H](C)c2ccccc2)c1	0.18		
C[C@H](N)C(=O)NCc1cccc(-n2nc(C(F)(F)F)cc2C(=O)NC2CCCCC2)c1	4.3		
CNC(=O)c1cc(C(F)(F)F)nn1-c1cccc(CNC(=O)CN)c1	10.6		
C[C@H](N)C(=O)NCc1cccc(-n2nc(C(F)(F)F)cc2C(=O)N[C@@H](C)c2ccccc2)c1	7.1		
NCC(=O)NCc1cccc(-n2nc(C(F)(F)F)cc2C(=O)Nc2ccc(-c3ccccc3)cc2)c1	1.42		
C[C@@H](N)C(=O)NCc1cccc(-n2nc(C(F)(F)F)cc2C(=O)Nc2ccc(-c3ccccc3S(C)(=O)=O)cc2F)c1	20.1		
CS(=O)(=O)c1ccccc1-c1ccc(NC(=O)c2cc(C(F)(F)F)nn2-c2cccc(CNC(=O)C(N)C(F)(F)F)c2)c(F)c1 (centres undefined)	> 30		
NCC(=O)NCc1cccc(-n2nc(C(F)(F)F)cc2C(=O)Nc2ccccc2)c1	7.7		
C[C@H](N)C(=O)NCc1ccccc1-n1nc(C(F)(F)F)cc1C(=O)NCc1ccccc1	> 50		
CS(=O)(=O)c1ccccc1-c1ccc(NC(=O)c2cc(C(F)(F)F)nn2-c2cccc(CNC(=O)CN)c2)cc1	1.8		

The next lines start with the values.

IC50 [1] [µM]	IC50 [2] [µM]	IC50 [3] [µM]	SMILES
29.8			CN(C)C(=O)c1cc(C(F)(F)F)nn1-c1cccc(CNC(=O)CN)c1
0.23			CS(=O)(=O)c1cccc(NC(=O)c2cc(C(F)(F)F)nn2-c2cccc(CNC(=O)CN)c2)c1
1.1			C[C@H](N)C(=O)NCc1cccc(-n2nc(C(F)(F)F)cc2C(=O)NCCc2ccccc2)c1
0.6			C[C@H](N)C(=O)NCc1cccc(-n2nc(C(F)(F)F)cc2NC(=O)OCc2ccccc2)c1
> 50			C[C@H](N)C(=O)NCc1ccc(-n2nc(C(F)(F)F)cc2C(=O)NCc2ccccc2)cc1
16.9			CS(=O)(=O)c1ccccc1-c1ccc(NC(=O)c2cc(C(F)(F)F)nn2-c2cccc(CNC(=O)CCN)c2)c(F)c1
0.16			C[C@H](N)C(=O)NCc1cccc(-n2nc(C(F)(F)F)cc2C(=O)Nc2ccc(-c3ccccc3S(C)(=O)=O)cc2F)c1
